Laboratory results as given in US11505815B2, “Compositions and methods related to non-templated enzymatic nucleic acid synthesis” (Nuclera Nucleics Ltd., priority 2017, dated 2022).

Key:
[1] = Deamination time course in sodium nitrite / sodium acetate pH 5.5, analysed by LC-MS; format: physicochemical; settings: sodium nitrite (700 mM), pH 5.5 (1 M), room temperature; for Extent of deamination (conversion to oxidative deamination product): LC chromatograms at 260 nm
Experimental: (A) LC-MS was performed on a Bruker amaZon system, with a Synergi Polar RP column. Solvents were A (20 mM ammonium acetate, pH 4.6) and B (20 mM ammonium acetate, pH 4.6 [5%]/acetonitrile [95%]). A gradient from 5-40% B in 10 minutes was run at 0.5 mL/min. Data is shown as a series of LC chromatograms at 260 nm. The ˜2.6 min peak corresponds to 2′-deoxyadenosine and the peak at ˜1.3 min corresponds to 2′-deoxyinosine (oxidative deamination product). (B) Plot of deamination percent over time. (C) Oxidative deamination reaction shown below converting 2′-deoxyadenosine to 2′deoxyinosine.
Solvents were A (20 mM ammonium acetate, pH 4.6) and B (20 mM ammonium acetate, pH 4.6 [5%]/acetonitrile [95%]). A gradient from 5-40% B in 10 minutes was run at 0.5 mL/min. Data shown as a series of LC chromatograms at two wavelengths for each time point as labeled above. The peak at ˜4.5 min retention time corresponds with 6-azido 2′-deoxyadenosine.
(A) LC-MS was performed on a Bruker amaZon system, with a Synergi Polar RP column. Solvents were A (20 mM ammonium acetate, pH 4.6) and B (20 mM ammonium acetate, pH 4.6 [5%]/acetonitrile [95%]). A gradient from 5-25% B in 10 minutes was run at 0.4 mL/min. Data is shown as a series of LC chromatograms at 260 nm. […] (B) Plot of deamination percent over time. (C) Oxidative deamination reaction shown below converting 2′-deoxycytidine (dC) to 2′-deoxyuridine (dU).
Solvents were A (20 mM ammonium acetate, pH 4.6) and B (20 mM ammonium acetate, pH 4.6 [5%]/acetonitrile [95%]). A gradient from 5-25% B in 10 minutes was run at 0.4 mL/min. […] Data shown as a series of LC chromatograms at 260 nm.

[2] = test system: engineered terminal deoxynucleotidyl transferase; assay: Enzymatic incorporation of nucleoside 5′-triphosphates with amine-masking moieties onto a DNA primer (denaturing PAGE); format: biochemical; settings: 10 minutes at 37° C., buffer containing cobalt chloride, DNA primer with 5′-fluorophore
Experimental: FIG. 11: Enzymatic incorporation of nucleoside 5′-triphosphates with amine-masking moieties. An engineered terminal deoxynucleotidyl transferase was incubated for 10 minutes at 37° C. in an appropriate buffer containing cobalt chloride and a DNA primer with a 5′-fluorophore as well as the following nucleoside 5′-triphosphates: (A) Lane 1: No extension control; Lane 2: N6-benzyl-dATP; Lane 3: N6-benzyl-rATP; Lane 4: N6-methyl-dATP; Lane 5: N6-methyl-rATP; (B) Lane 1: No extension control; Lane 2: 3′-O-acetyl-N4-benzoyl-dCTP; (C) Lane 1: No extension control; Lane 3: N6-benzoyl-dATP; Lane 4: N4-benzoyl-dCTP. Reactions were analyzed by standard denaturing polyacrylamide gel electrophoresis (TBE buffer) and imaged with a fluorescent scanner.

| SMILES | Extent of deamination (conversion to oxidative deamination product) [1] | Deacetylation during incubation with nitrite solution ([1]; 48 hours) | Acceptance as substrate by terminal transferase enzyme in a DNA synthesis process [2] |
| --- | --- | --- | --- |
| Nc1nc2nc[nH]c2c(=O)[nH]1 [guanine, reference compound] | occur at an appreciable rate |  |  |
| CC(=O)Nc1ncnc2c1ncn2[C@@H]1O[C@H](CO)[C@@H](O)[C@H]1O [N6-acetyl A, N6-acetyl adenosine] | no deamination product is detected | minor deacetylation |  |
| Nc1cc[nH]c(=O)n1 [cytosine, reference compound] | occur at an appreciable rate |  |  |
| Nc1ncnc2nc[nH]c12 [adenine, reference compound] | occur at an appreciable rate |  |  |
| O=C(Nc1ccn([C@H]2C[C@H](O)[C@@H](COP(=O)(O)OP(=O)(O)OP(=O)(O)O)O2)c(=O)n1)c1ccccc1 [N4-benzoyl 2′-deoxycytidine triphosphate] |  |  | accepted as a substrate |
| CC(C)=CCNc1ncnc2nc[nH]c12 [N6-dimethylallylamino purine] | notable absence of peaks corresponding to dA or dI |  |  |
